Source: US7687643B2, “Process for preparing 3,3-dimethylindolines” (Amgen Inc., priority 2001, dated 2010)

system: Human Umbilical Vein Endothelial cells (VEGF-stimulated); test: HUVEC proliferation assay, VEGF-stimulated; assay type: cell-based; details: VEGF 50 ng/mL, 72 h, CyQuant, read-out: inhibited VEGF-stimulated HUVEC proliferation at a level
Procedure, shortened: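 Pooled-donor HUVECs (passage 2–3) seeded in DMEM+10% FBS for 22 h, then pre-treated 2–3 h with five-point, five-fold compound dilutions (0.25% DMSO final). Stimulated with 50 ng/mL VEGF (bFGF 20 ng/mL on separate plates) for 72 h at 37 °C. CyQuant fluorescence (485/530 nm) after freeze-thaw; IC50 from 4-parameter fit.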

Question: `O=C(Nc1ccc(Oc2ccccc2)cc1)c1cccnc1NCc1ccncc1` [Example 158, N-(4-Phenoxyphenyl){2-[(4-pyridylmethyl)amino](3-pyridyl)}carboxamide] was tested. Which IC50 did it give?
Answer: The IC50 was less than 50 nM.

Question: For `CC(C)c1ccc(NC(=O)c2cc(F)cnc2NCc2ccncc2)cc1` [Example 67, {5-Fluoro-2-[(4-pyridylmethyl)amino](3-pyridyl)}-N-[4-(isopropyl)phenyl]carboxamide], which IC50 is on record?
Answer: Its IC50 is less than 50 nM.

Question: How did the IC50 turn out when `CC1(C)CNc2cc(NC(=O)c3cccnc3NCc3ccnc4ccccc34)ccc21` [Example 1023, N-(3,3-Dimethyl-2,3-dihydro-1H-indol-6-yl)-2-((4-quinolinylmethyl)amino)-3-pyridinecarboxamide] was run?
Answer: Its IC50 is less than 50 nM.

Question: `COc1cc(CNc2ncccc2C(=O)Nc2ccc3c(c2)CNCC3(C)C)ccn1` [Example 1177, N-(4,4-Dimethyl-1,2,3,4-tetrahydro-isoquinolin-7-yl)-2-[(2-methoxy-pyridin-4-ylmethyl)-amino]-nicotinamide] was tested. Which IC50 did it give?
Answer: The IC50 was less than 50 nM.

Question: Which IC50 does the source give for `O=C(Nc1ccc(C(F)(F)F)c(OCCN2CCCC2)c1)c1cccnc1NCc1ccncn1` [Example 1024, 2-((4-Pyrimidinylmethyl)amino)-N-(3-((2-(1-pyrrolidinyl)ethyl)oxy)-4-(trifluoromethyl)phenyl)-3-pyridinecarboxamide] here?
Answer: Its IC50 is less than 50 nM.

Question: Which IC50 does the source give for `COc1nccc(CNc2ncccc2C(=O)Nc2ccc3c(c2)N(C(C)=O)CC3(C)C)n1` [Example 1046, N-(1-acetyl-3,3-dimethyl-2,3-dihydro-1H-indol-6-yl)-2-(((2-(methyloxy)-4-pyrimidinyl)methyl)amino)-3-pyridinecarboxamide] here?
Answer: Its IC50 is less than 50 nM.

Question: For `CC1(C)COc2cc(NC(=O)c3cccnc3NCc3ccncc3)ccc21` [Example 973, N-(3,3-Dimethyl-2,3-dihydro-benzofuran-6-yl)-2-[(pyridin-4-ylmethyl)-amino]-nicotinamide], which IC50 is on record?
Answer: The IC50 was less than 50 nM.

Question: Which IC50 does the source give for `O=C(Nc1cc(NC(=O)c2cccnc2NCc2ccncn2)cc(C(F)(F)F)c1)O[C@H]1CCOC1` [Example 1086, (3S)-tetrahydro-3-furanyl 3-(((2-((4-pyrimidinylmethyl)amino)-3-pyridinyl)carbonyl)amino)-5-(trifluoromethyl)phenylcarbamate] here?
Answer: Its IC50 is less than 50 nM.

Question: With `COc1cc(CNc2ncccc2C(=O)Nc2ccc3c(c2)CNCC32CC2)ccn1` [Example 1128, N-(4-Spiro-1′-cyclopropane-1,2,3,4-tetrahydroisoquinolin-7-yl)-2-[(2-methoxy-pyridin-4-ylmethyl)-amino]-nicotinamide] as the compound, how does the IC50 read?
Answer: Its IC50 is less than 50 nM.

Question: How did the IC50 turn out when `O=C(Nc1ccc(C(OC[C@@H]2CCCN2)(C(F)(F)F)C(F)(F)F)cc1)c1cccnc1NCc1ccncc1` [Example 1141, 2-[(Pyridin-4-ylmethyl)-amino]-N-{4-[2,2,2-trifluoro-1-(pyrrolidin-2-ylmethoxy)-1-trifluoromethyl-ethyl]-phenyl}-nicotinamide] was run?
Answer: The IC50 was less than 50 nM.

Question: `O=C(Nc1ccc2c(c1)N(CCN1CCCCC1)CC2)c1cccnc1NCc1ccncc1` [Example 130, N-[1-(2-Piperidylethyl)indolin-6-yl]{2-[(4-pyridylmethyl)amino](3-pyridyl)}carboxamide] was tested. Which IC50 did it give?
Answer: The IC50 was less than 50 nM.

Question: `CNc1cc(CNc2ncccc2C(=O)Nc2cc(OC[C@@H]3CCCO3)cc(C(F)(F)F)c2)ccn1` [Example 1080, 2-(((2-(methylamino)-4-pyridinyl)methyl)amino)-N-(3-(((2S)-tetrahydro-2-furanylmethyl)oxy)-5-(trifluoromethyl)phenyl)-3-pyridinecarboxamide] was tested. Which IC50 did it give?
Answer: The IC50 was less than 50 nM.

Question: With `CC1(C)CNc2cc(NC(=O)c3cccnc3NCc3ccncc3)ccc2O1` [Example 995, N-(2,2-Dimethyl-3,4-dihydro-2H-benzo[1,4]oxazin-6-yl)-2-[(pyridin-4-ylmethyl)-amino]-nicotinamide] as the compound, how does the IC50 read?
Answer: The IC50 was less than 50 nM.

Question: `COc1nccc(CNc2ncccc2C(=O)Nc2cc(OC[C@@H]3CCCN3C)cc(C(F)(F)F)c2)n1` [Example 1047, 2-(((2-(methyloxy)-4-pyrimidinyl)methyl)amino)-N-(3-((((2S)-1-methyl-2-pyrrolidinyl)methyl)oxy)-5-(trifluoromethyl)phenyl)-3-pyridinecarboxamide] was tested. Which IC50 did it give?
Answer: Its IC50 is less than 50 nM.

Question: For `CC(C)c1ccc(NC(=O)c2cccnc2NCc2ccnc3ccccc23)cc1` [Example 167, N-[4-(Isopropyl)phenyl]{2-[(4-quinolylmethyl)amino](3-pyridyl)}carboxamide], which IC50 is on record?
Answer: The IC50 was less than 50 nM.

Question: `CNc1nccc(CNc2ncccc2C(=O)Nc2ccc3c(c2)N(C(=O)CN(C)C)CC3(C)C)n1` [Example 1039, N-(1-(N,N-Dimethylglycyl)-3,3-dimethyl-2,3-dihydro-1H-indol-6-yl)-2-(((2-(methylamino)-4-pyrimidinyl)methyl)amino)-3-pyridinecarboxamide] was tested. Which IC50 did it give?
Answer: Its IC50 is less than 50 nM.

Question: For `CC(C)c1ccc(NC(=O)c2ccc(F)nc2NCc2ccncc2)cc1` [Example 155, {6-Fluoro-2-[(4-pyridylmethyl)amino](3-pyridyl)}-N-[4-(isopropyl)phenyl]carboxamide], which IC50 is on record?
Answer: Its IC50 is less than 50 nM.

Question: For `CC1(C)CCNc2cc(NC(=O)c3cccnc3NCc3ccnc(N4CCOCC4)c3)ccc21` [Example 1154, N-(4,4-Dimethyl-1,2,3,4-tetrahydro-quinolin-7-yl)-2-[(2-morpholin-4-yl-pyridin-4-ylmethyl)-amino]-nicotinamide], which IC50 is on record?
Answer: Its IC50 is less than 50 nM.

Question: How did the IC50 turn out when `CC(=O)N1CC(C)(C)Oc2ccc(NC(=O)c3cccnc3NCc3ccncc3)cc21` [Example 943, N-(4-Acetyl-2,2-dimethyl-3,4-dihydro-2H-benzo[1,4]oxazin-6-yl)-2-[(pyridin-4-ylmethyl)-amino]-nicotinamide] was run?
Answer: The IC50 was less than 50 nM.

Question: `CNc1cc(CNc2ncccc2C(=O)Nc2ccc3c(c2)N(C(C)=O)CC3(C)C)ccn1` [Example 1103, N-(1-Acetyl-3,3-dimethyl-2,3-dihydro-1H-indol-6-yl)-2-[(2-methylamino-pyridin-4-ylmethyl)-amino]-nicotinamide] was tested. Which IC50 did it give?
Answer: The IC50 was less than 50 nM.

Question: With `CNc1nccc(CNc2ncccc2C(=O)Nc2ccc3c(c2)N(C(C)=O)CC3(C)C)n1` [Example 1045, N-(1-acetyl-3,3-dimethyl-2,3-dihydro-1H-indol-6-yl)-2-(((2-(methylamino)-4-pyrimidinyl)methyl)amino)-3-pyridinecarboxamide] as the compound, how does the IC50 read?
Answer: The IC50 was less than 50 nM.

Question: With `COc1cc(CNc2ncccc2C(=O)Nc2ccc3c(c2)NCCC3(C)C)ccn1` [Example 1113, N-(4,4-Dimethyl-1,2,3,4-tetrahydro-quinolin-7-yl)-2-[(2-methoxy-pyridin-4-ylmethyl)-amino]-nicotinamide] as the compound, how does the IC50 read?
Answer: The IC50 was less than 50 nM.

Question: How did the IC50 turn out when `CC1(C)CNCc2cc(NC(=O)c3cccnc3NCc3ccnc4ccccc34)ccc21` [Example 1192, N-(4,4-Dimethyl-1,2,3,4-tetrahydro-isoquinolin-7-yl)-2-[(quinolin-4-ylmethyl)-amino]-nicotinamide] was run?
Answer: The IC50 was less than 50 nM.

Question: Which IC50 does the source give for `CS(=O)(=O)Nc1cc(NC(=O)c2cccnc2NCc2ccncc2)cc(C(F)(F)F)c1` [Example 1095, N-(3-((methylsulfonyl)amino)-5-(trifluoromethyl)phenyl)-2-((4-pyridinylmethyl)amino)-3-pyridinecarboxamide] here?
Answer: Its IC50 is less than 50 nM.

Question: With `CN1CCC(CCCOc2cc(CNc3ncccc3C(=O)Nc3ccc(C(C)(C)C)cc3)ccn2)CC1` [Example 924, 2-({2-[3-(1-Methyl-piperidin-4-yl)-propoxy]-pyridin-4-ylmethyl}-amino)-N-(4-tert-butyl-phenyl)-nicotinamide] as the compound, how does the IC50 read?
Answer: The IC50 was less than 50 nM.
